In ChEMBL document CHEMBL5291721, “A preclinical secondary pharmacology resource illuminates target-adverse drug reaction associations of marketed drugs” (Nat Commun, 2023):

What was measured:
[1] = target: T1, Alpha-2B adrenergic receptor (Homo sapiens, UniProt P18089)
T1 sequence (P18089 whole entry): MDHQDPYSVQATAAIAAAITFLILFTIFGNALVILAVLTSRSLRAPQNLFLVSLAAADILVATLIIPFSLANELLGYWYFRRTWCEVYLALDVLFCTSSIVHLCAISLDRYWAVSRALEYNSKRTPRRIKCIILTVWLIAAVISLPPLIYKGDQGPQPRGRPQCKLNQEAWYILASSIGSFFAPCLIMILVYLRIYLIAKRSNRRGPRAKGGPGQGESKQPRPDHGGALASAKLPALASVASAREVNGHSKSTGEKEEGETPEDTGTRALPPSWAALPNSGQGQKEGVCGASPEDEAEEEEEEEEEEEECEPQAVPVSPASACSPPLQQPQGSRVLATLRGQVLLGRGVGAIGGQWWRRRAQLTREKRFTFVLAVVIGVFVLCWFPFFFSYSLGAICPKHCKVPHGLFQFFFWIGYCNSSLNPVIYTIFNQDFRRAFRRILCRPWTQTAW

[2] = target: T2, Alpha-2C adrenergic receptor (Homo sapiens, UniProt P18825); format: functional
T2 sequence (P18825 whole entry): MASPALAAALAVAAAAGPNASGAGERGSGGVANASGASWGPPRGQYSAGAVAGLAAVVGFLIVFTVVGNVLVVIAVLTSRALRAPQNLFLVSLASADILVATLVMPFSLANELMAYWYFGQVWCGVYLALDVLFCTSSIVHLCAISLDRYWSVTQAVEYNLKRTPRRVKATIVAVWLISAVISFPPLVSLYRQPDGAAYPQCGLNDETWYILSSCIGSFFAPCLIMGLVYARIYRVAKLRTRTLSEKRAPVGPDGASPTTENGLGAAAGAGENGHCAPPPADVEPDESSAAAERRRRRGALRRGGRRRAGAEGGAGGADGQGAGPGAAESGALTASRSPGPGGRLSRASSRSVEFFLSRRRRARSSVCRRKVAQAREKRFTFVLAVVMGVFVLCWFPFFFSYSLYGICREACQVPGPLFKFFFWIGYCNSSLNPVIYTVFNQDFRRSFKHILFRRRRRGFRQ

[3] = target: Beta-1 adrenergic receptor (Homo sapiens, UniProt P08588); format: functional
[4] = target: T3, Type-1 angiotensin II receptor (Homo sapiens, UniProt P30556)
T3 sequence (P30556 whole entry): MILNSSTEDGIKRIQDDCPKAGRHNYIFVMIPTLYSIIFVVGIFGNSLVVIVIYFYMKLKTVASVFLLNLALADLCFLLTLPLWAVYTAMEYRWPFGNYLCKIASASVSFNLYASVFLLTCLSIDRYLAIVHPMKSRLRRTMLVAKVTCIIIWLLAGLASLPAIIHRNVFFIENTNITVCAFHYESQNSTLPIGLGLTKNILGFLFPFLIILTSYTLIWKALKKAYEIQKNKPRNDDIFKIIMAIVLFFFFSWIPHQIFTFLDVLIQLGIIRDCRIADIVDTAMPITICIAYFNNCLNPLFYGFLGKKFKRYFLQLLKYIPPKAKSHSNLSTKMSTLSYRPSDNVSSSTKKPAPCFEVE

[5] = target: D(1A) dopamine receptor (Homo sapiens, UniProt P21728); format: functional, cell-based
[6] = target: Gamma-aminobutyric acid receptor subunit alpha-1 (Rattus norvegicus, UniProt P62813); format: functional
[7] = target: 5-hydroxytryptamine receptor 2A (Homo sapiens, UniProt P28223); format: functional, cell-based
[8] = target: T4, 5-hydroxytryptamine receptor 3A (Homo sapiens, UniProt P46098); format: functional
T4 sequence (P46098 whole entry): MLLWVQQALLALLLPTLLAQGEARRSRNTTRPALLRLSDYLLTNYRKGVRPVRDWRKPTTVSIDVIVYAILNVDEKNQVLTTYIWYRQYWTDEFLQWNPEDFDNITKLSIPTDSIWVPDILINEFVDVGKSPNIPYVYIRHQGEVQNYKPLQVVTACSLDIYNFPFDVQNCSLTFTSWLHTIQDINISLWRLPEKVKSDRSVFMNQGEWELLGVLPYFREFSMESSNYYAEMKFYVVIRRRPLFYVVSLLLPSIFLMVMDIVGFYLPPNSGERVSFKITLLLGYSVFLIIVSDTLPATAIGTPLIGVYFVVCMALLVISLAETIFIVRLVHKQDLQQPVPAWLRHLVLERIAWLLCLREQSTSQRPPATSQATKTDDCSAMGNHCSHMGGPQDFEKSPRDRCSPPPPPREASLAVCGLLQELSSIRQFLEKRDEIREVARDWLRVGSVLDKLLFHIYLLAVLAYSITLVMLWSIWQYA

[9] = target: T5, Glucocorticoid receptor (Homo sapiens, UniProt P04150)
T5 sequence (P04150 whole entry): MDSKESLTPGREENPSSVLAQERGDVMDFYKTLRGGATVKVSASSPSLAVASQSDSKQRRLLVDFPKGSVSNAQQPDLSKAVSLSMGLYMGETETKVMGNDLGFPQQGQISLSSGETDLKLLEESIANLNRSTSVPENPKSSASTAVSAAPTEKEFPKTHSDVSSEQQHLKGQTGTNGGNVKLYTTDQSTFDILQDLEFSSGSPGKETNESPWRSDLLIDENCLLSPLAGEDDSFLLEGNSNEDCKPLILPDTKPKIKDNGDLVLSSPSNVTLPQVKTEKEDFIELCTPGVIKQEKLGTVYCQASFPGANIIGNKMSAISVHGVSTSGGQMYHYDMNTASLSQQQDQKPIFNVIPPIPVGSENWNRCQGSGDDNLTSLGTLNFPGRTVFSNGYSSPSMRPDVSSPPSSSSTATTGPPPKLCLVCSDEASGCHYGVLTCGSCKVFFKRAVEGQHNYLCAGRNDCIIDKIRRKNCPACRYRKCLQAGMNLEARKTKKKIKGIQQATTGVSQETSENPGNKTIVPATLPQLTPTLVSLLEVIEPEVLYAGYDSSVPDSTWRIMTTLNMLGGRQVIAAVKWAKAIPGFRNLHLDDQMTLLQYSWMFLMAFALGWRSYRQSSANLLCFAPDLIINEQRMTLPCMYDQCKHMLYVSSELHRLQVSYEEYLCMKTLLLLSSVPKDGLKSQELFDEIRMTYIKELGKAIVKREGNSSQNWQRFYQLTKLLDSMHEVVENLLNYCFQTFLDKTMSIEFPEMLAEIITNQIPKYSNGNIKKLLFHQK
Also: assay procedure not described here.

Sequence of Gamma-aminobutyric acid receptor subunit alpha-1 (P62813 whole entry): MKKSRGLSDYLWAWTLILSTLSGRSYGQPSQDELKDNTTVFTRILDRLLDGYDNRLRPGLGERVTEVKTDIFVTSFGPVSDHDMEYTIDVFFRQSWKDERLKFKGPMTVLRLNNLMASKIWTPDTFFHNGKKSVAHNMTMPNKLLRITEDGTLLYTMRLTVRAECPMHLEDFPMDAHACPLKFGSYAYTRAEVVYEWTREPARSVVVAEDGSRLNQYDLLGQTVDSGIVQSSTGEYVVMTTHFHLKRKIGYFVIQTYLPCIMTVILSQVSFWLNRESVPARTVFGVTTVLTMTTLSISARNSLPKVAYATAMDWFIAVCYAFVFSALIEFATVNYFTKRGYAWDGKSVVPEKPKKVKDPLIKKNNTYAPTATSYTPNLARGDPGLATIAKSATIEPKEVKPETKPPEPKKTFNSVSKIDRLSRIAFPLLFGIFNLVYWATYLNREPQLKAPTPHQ
Sequence of D(1A) dopamine receptor (P21728 whole entry): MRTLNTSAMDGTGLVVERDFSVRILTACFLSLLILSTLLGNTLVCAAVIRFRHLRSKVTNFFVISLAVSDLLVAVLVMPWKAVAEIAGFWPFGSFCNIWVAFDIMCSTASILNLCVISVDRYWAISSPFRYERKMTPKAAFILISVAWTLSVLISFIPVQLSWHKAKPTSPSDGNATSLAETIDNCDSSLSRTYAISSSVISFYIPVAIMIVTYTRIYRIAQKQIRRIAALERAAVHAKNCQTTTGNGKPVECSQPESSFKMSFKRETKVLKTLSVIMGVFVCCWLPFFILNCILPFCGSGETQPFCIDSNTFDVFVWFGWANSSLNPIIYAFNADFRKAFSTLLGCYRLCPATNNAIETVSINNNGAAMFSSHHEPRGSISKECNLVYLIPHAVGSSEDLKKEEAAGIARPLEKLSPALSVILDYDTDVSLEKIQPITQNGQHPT
Sequence of 5-hydroxytryptamine receptor 2A (P28223 whole entry): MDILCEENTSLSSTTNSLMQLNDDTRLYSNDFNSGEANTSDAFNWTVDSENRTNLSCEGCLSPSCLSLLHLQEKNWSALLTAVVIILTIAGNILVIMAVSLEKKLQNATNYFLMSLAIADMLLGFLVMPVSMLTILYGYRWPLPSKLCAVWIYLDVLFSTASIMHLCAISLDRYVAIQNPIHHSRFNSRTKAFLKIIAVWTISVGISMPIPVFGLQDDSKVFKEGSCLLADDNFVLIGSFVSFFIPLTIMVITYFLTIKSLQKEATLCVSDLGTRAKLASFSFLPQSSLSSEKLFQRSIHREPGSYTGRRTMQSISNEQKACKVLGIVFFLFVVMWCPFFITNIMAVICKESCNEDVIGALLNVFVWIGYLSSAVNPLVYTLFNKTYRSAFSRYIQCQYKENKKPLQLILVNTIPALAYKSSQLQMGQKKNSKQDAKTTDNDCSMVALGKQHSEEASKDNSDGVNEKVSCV
Sequence of Beta-1 adrenergic receptor (P08588 whole entry): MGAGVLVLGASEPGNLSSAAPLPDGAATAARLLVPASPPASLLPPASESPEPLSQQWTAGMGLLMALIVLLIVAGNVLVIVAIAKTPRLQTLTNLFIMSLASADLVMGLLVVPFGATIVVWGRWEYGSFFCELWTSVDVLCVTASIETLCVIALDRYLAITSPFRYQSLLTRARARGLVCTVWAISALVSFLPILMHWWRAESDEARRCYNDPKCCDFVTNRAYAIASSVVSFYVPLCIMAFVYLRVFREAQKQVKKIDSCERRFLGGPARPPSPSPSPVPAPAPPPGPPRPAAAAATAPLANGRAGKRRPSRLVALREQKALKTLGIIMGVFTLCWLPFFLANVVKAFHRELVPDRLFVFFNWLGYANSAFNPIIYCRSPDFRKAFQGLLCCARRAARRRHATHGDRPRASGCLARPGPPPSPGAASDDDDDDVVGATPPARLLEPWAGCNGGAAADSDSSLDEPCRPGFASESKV

SMILES | AC50 [1] [µM] | AC50 [2] [µM] | AC50 [3] [µM] | AC50 [4] [µM] | AC50 [5] [µM] | AC50 [6] [µM] | AC50 [7] [µM] | AC50 [8] [µM] | AC50 [9] [µM]
O=C(C[S+]([O-])C(c1ccccc1)c1ccccc1)NO (stereo unspecified) | > 30 | > 30 | > 30 | > 30 | > 30 | > 30 | > 30 | > 30 | > 30
C=C1CC[C@@]2(O)[C@H]3Cc4ccc(O)c5c4[C@@]2(CCN3CC2CC2)[C@H]1O5 | > 30 | > 30 | > 30 | > 30 | > 30 | > 30 | > 30 | > 30 | > 30
Nc1ncnc2c1ncn2[C@@H]1O[C@H](COP(=O)(O)O)[C@@H](O)[C@H]1O [ADENOSINE PHOSPHATE] | > 30 | > 30 | > 30 | > 30 | > 30 | > 30 | > 30 | > 30 | > 30
CC(=O)OCC(=O)[C@@]12OC3(CCCC3)O[C@@H]1C[C@H]1[C@@H]3CCC4=CC(=O)C=C[C@]4(C)[C@@]3(F)[C@@H](O)C[C@@]12C [AMCINONIDE] | > 10 | > 10 | > 10 | > 10 | > 10 | > 10 | > 10 | > 30 | 0.016
CCC(C(=O)O)c1ccc(CC(C)C)cc1 (stereo unspecified) [BUTIBUFEN] | > 30 | > 30 | > 30 | > 30 | > 30 | > 30 | > 30 | > 30 | > 30
CN(C)C(=O)OC1N=C(c2ccccc2)c2cc(Cl)ccc2N(C)C1=O (stereo unspecified) [CAMAZEPAM] | > 10 | > 10 | > 10 | > 30 | > 10 | 0.96 | > 30 | > 10 | > 30
CCOC(=O)[C@H](CCc1ccccc1)N[C@H]1CCCN2CCC[C@@H](C(=O)O)N2C1=O [CILAZAPRIL] | > 30 | > 30 | > 30 | > 30 | > 30 | > 30 | > 30 | > 30 | > 30
CCOc1cc(N)c([N+](=O)[O-])cc1C(=O)NC1CCN(CC2CC=CCC2)CC1 (stereo unspecified) [CINITAPRIDE] | 9.3 | 1.3 | > 30 | > 30 | > 30 | 14 | > 30 | 22 | > 30
CN1C(=O)CC(=O)N(c2ccccc2)c2cc(Cl)ccc21 [CLOBAZAM] | > 10 | > 10 | > 10 | > 10 | > 10 | 0.3 | > 10 | > 10 | > 10
CCCCOc1cc(C(=O)NCCN(CC)CC)c2ccccc2n1 [DIBUCAINE] | > 10 | > 10 | > 10 | > 10 | > 10 | > 30 | > 10 | > 30 | > 10
CCCCCCCCCCCC[N+](C)(C)CCOc1ccccc1 [DOMIPHEN] | 3.8 | 4.2 | 3.1 | 14 | > 30 | > 30 | > 30 | > 30 | 18
C#CC1(OC(N)=O)CCCCC1 [ETHINAMATE] | > 10 | > 10 | > 10 | > 30 | > 10 | > 10 | > 10 | > 30 | > 10
O=C1CN=C(c2ccccc2)c2cc(Cl)ccc2N1CC(F)(F)F [HALAZEPAM] | > 30 | > 30 | > 30 | > 30 | > 30 | 0.506 | > 30 | > 30 | > 30
CCC1(C2=CCCCCC2)C(=O)NC(=O)NC1=O [HEPTABARBITAL] | > 10 | > 10 | > 10 | > 10 | > 10 | > 10 | > 10 | > 30 | > 10
CCCCCN(C)CCC(O)(P(=O)(O)O)P(=O)(O)O [IBANDRONIC ACID] | > 30 | > 30 | > 30 | 6.2 | > 30 | > 30 | > 30 | > 30 | > 30
C1=Cc2cccc(OCC3CNCCO3)c2C1 (stereo unspecified) [INDELOXAZINE] | > 30 | > 30 | > 30 | > 30 | > 30 | > 30 | > 30 | 25 | > 30
O=C(CCCCC(=O)Nc1c(I)cc(I)c(C(=O)O)c1I)Nc1c(I)cc(I)c(C(=O)O)c1I [IODIPAMIDE] | > 10 | > 10 | > 10 | > 10 | > 30 | > 10 | > 10 | > 30 | > 10
CC(C)[N+](C)(CCC(C(N)=O)(c1ccccc1)c1ccccc1)C(C)C [ISOPROPAMIDE] | > 10 | > 10 | > 10 | > 10 | > 10 | > 10 | > 10 | > 30 | > 10
COC(=O)C1=C(C)NC(C)=C(C(=O)OC(C)C)C1c1cccc2nonc12 (stereo unspecified) [ISRADIPINE] | > 30 | > 30 | > 10 | > 10 | > 30 | > 10 | > 10 | > 30 | 15.1
